# Data: publication PMC6271860, “Bioactive 30-Noroleanane Triterpenes from the Pericarps of Akebia trifoliata” (Molecules, 2014)
# Counter-ions that a name gives are not always drawn.
# Legend:
# [1] = test system: S. typhimurium (CMCC44102); experiment: Antibacterial microdilution titre assay (resazurin), MIC; conditions: Salmonella enterica
# [2] = test system: MRSA; experiment: as above; conditions: for MIC: MRSA, Gram-positive, 37 °C, 5–6 h
# [3] = test system: B. cereus (CMCC63302); experiment: as above; conditions: Gram-positive, 37 °C, 5–6 h
# [4] = test system: E. coli (CMCC44102); experiment: as above; conditions: Escherichia coli
# [5] = test system: S. aureus (CMCC26003); experiment: as above; conditions: Gram-positive, 37 °C, 5–6 h
# [6] = test system: B. subtilis (CMCC63501); experiment: as above; conditions: Gram-positive, 37 °C, 5–6 h
# [7] = test system: S. dysenteriae (CMCC51252); experiment: as above; assay type: cell-based; conditions: Shigella dysenteriae
# [8] = Cytotoxicity, MTT method; conditions: human
# Method: (§1) These compounds were also tested for their in vitro cytotoxicity against three human tumor cell lines, A549 (human lung adenocarcinoma), HeLa (human cervical carcinoma) and HepG2 (human liver hepatocellular carcinoma), using the MTT method as described.
# (§2) The three tumor cell lines were generously provided by Kunming Institute of Zoology, Chinese Academy of Sciences. The cytotoxic activities of the tested compounds were assayed according to the MTT method by using 96 well plates. Briefly, the cells were cultured in RPMI-1640 medium, supplemented with 10% fetal bovine serum in a humidified atmosphere with 5% CO2 at 37 °C. One hundred μL of adherent cells at the density of 5 × 10^4 cell/mL was seeded into each well of 96-well cell culture plates and incubated in 5% CO2 at 37 °C for 24 h to form a monolayer on the flat bottoms. Then, removed the supernatant per well and subsequently added with 100 μL of fresh medium and 100 μL of medium containing a test compound. The plate was then incubated in 5% CO2at 37 °C. After 72 h, 20 μL of 5 mg/mL MTT in DMSO was added into each well and incubated for 4 h. The supernatant per well was carefully removed and 150 μL of DMSO was added. The plate was then vortex shaken for 15 min to dissolve blue formazan crystals. The optical density (OD) of each well was measured on a Genois microplate reader (Tecan GENios, Männedorf, Switzerland) at the wavelength of 570 nm. All experiments were performed in triplicate and adriamycin was used as a positive control. In each experiment, each of the tumor cell lines was exposed to the test compound at concentrations of 50, 25, 12.5, 6.25, 3.125, 1.5625 µg/mL. The inhibitory rate of cell growth was calculated according to the following formula: Inhibition rate (%) = (ODcontrol− ODtreated)/ODcontrol× 100%. IC50 values were calculated by SPSS 16.0 statistic software. The values were based on three individual experiments and expressed as means ± standard deviation (SD).
# [9] = test system: A549 (human lung adenocarcinoma); experiment: Cytotoxicity, MTT method; conditions: read-out: Cytotoxicity IC50, A549 cells, 72 h, mean ± SD (n = 3)
# Method: as §1, §2
# [10] = test system: HeLa (human cervical carcinoma); experiment: Cytotoxicity, MTT method; conditions: read-out: Cytotoxicity IC50, HeLa cells, 72 h, mean ± SD (n = 3)
# Method: as §1, §2
# [11] = Bacillus cereus, CMCC63302, B. cereus (CMCC63302)
# [12] = Staphylococcus aureus, CMCC26003, S. aureus (CMCC26003)
# [13] = Bacillus subtilis, CMCC63501, B. subtilis (CMCC63501)
# [14] = Cytotoxicity IC50, A549 cells, mean ± SD (n = 3)
# [15] = Cytotoxicity IC50, HeLa cells, mean ± SD (n = 3)
SMILES,MIC [1] [µg/mL],MIC ([2]; Staphylococcus aureus) [µg/mL],"MIC [3, 11] [µg/mL]",MIC [4] [µg/mL],"MIC [5, 12] [µg/mL]","MIC [6, 13] [µg/mL]",MIC [7] [µg/mL],IC50 at 72 h [8] [µM],"IC50 at 72 h [8, 14] [µM]","IC50 at 72 h [8, 15] [µM]","MIC toward MRSA, fold stronger than the reference compound kanamycin ([2]; MIC compared with kanamycin)",MIC [2] [µg/mL],MIC ([3]; B. cereus (CMCC63302)) [µg/mL],MIC ([5]; S. aureus (CMCC26003)) [µg/mL],MIC ([6]; B. subtilis (CMCC63501)) [µg/mL],IC50 [9] [µM],IC50 [10] [µM]
"CC1=C(C(=O)O)N2C(=O)[C@@H](NC(=O)[C@H](N)C3=CCC=CC3)[C@H]2SC1 [C, cefradine, reference compound]",12.5,> 200,200,12.5,50,200,12.5,,,,,,,,,,
"CC1(O)CCC2(C(=O)O)CCC3(C)C(=CCC4C5(C)CC(O)C(O)C(C)(C)C5CCC43C)C2C1 (stereo not drawn) [Compound 1, 2α,3β,20α-trihydroxy-30-norolean-12-en-28-oic acid]",> 200,> 200,> 200,> 200,> 200,> 200,> 200,> 100,> 100,> 100,,,,,,,
"C=C1CCC2(C(=O)O)CCC3(C)C(=CCC4C5(C)CC(O)C(O)C(C)(C=O)C5CCC43C)C2C1 (stereo not drawn) [Compound 2, 2α,3β-dihydroxy-23-oxo-30-norolean-12,20(29)-dien-28-oic acid]",> 200,> 200,> 200,> 200,> 200,> 200,> 200,> 100,> 100,> 100,,,,,,,
"C=C1CC[C@]2(C(=O)O)CC[C@]3(C)C(=CCC4[C@@]5(C)CC[C@H](O)C(C)(C)C5CC[C@]43C)C2C1 (stereo partly drawn) [Compound 3, 3β-akebonoic acid]",> 200,12.5 to 25,12.5 to 25,> 200,12.5 to 25,12.5 to 25,> 200,52.9 ± 5.28,49.5 ± 8.64,28.6 ± 7.41,about five-fold,25,25,25,12.5,,
"C=C1CC[C@]2(C(=O)O)CC[C@]3(C)C(=CCC4[C@@]5(C)C[C@@H](O)[C@H](O)C(C)(C)C5CC[C@]43C)C2C1 (stereo partly drawn) [Compound 4, 2α,3β-dihydroxy-30-noroleana-12,20(29)-dien-28-oic acid]",> 200,200,50,> 200,200,25,> 200,14.3 ± 0.49,8.8,16.33 ± 0.12,,,,,,8.77 ± 0.59,
"C=C1CC[C@]2(C(=O)O)CC[C@]3(C)C(=CCC4[C@@]5(C)CC[C@@H](O)C(C)(C)C5CC[C@]43C)C2C1 (stereo partly drawn) [Compound 5, 3α-akebonoic acid]",> 200,> 200,25,> 200,> 200,50,> 200,10.4 ± 1.17,10.6 ± 0.69,5.6,,,,,,,5.61
"C=C1CC[C@]2(C(=O)O)CC[C@]3(C)C(=CCC4[C@@]5(C)CC[C@@H](O)[C@](C)(CO)C5CC[C@]43C)C2C1 (stereo partly drawn) [Compound 6, quinatic acid]",> 200,> 200,50,> 200,> 200,12.5,> 200,> 100,> 100,> 100,,,,,,,
"NC[C@H]1O[C@H](O[C@H]2[C@H](O)[C@@H](O[C@H]3O[C@H](CO)[C@@H](O)[C@H](N)[C@H]3O)[C@H](N)C[C@@H]2N)[C@H](O)[C@@H](O)[C@@H]1O [K, kanamycin sulfate, reference compound]",3.9,125,3.9,3.9,1.9,3.9,3.9,,,,,,,,,,
